Consider 36 compounds from patent publication US9493444B2 (Merck Patent GmbH, priority 2012, dated 2016).

Molecules are shown by their SMILES. A value given as a limit tells only on which side of the number the result lay.

For this assay, the system named is Wnt pathway (TCF-dependent transcription in HEK293 luciferase reporter cell line with ER-DSH construct). The assay is described as follows: Cellular assay for Wnt pathway activity (luciferase reporter). The conditions noted are these: Homo sapiens; Wnt pathway inhibition, HEK293 luciferase reporter cells (ER-DSH, TCF promoter), 24 hours incubation, estrogen-induced. It counts as cell-based. The method, boiled down: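 Luminescent luciferase read-out after 24 h compound exposure at 1 nM to 30 μM, with TCF-driven transcription switched on by estrogen addition. IC50 values come from curve fits of data normalized against the vehicle-only control.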
For orientation: A reporter such as luciferase makes a cellular process visible.
As to `CC(=O)N(C)CCN(C)c1cncc(Oc2ccc(C#N)cc2)n1` [Compound 122, N-(2-{[6-(4-Cyano-phenoxy)-pyrazin-2-yl]-methyl-amino}-ethyl)-N-methyl-acetamide], the IC50 was below 0.2 µM.
With `CCOc1ccc(Oc2cncc(N(C)CCN(C)C(C)=O)n2)cc1` [Compound 123, N-(2-{[6-(4-Ethoxy-phenoxy)-pyrazin-2-yl]-methyl-amino}-ethyl)-N-methyl-acetamide], the 50% inhibitory concentration (IC50) is below 0.2 µM.
As for `CC(=O)N(C)CCN(C)c1cncc(Oc2ccc(-c3nc4cc(C#N)ccc4[nH]3)cc2)n1` [Compound 124, N-[2-({6-[4-(5-Cyano-1H-benzo-imidazo-2-yl)-phenoxy]-pyrazin-2-yl}-methyl-amino)-ethyl]-N-methyl-acetamide], the figure is 0.2 to 1 µM; as for `CC(=O)c1ccc(Oc2cncc(N(C)CCN(C)C(C)=O)n2)cc1` [Compound 125, N-(2-{[6-(4-Acetyl-phenoxy)-pyrazin-2-yl]-methyl-amino}-ethyl)-N-methyl-acetamide], 0.2 to 1 µM.
As for `CC(=O)N(C)CCN(C)c1cncc(Oc2ccc(C(=O)N3CCCC(c4cccn4C)=N3)cc2)n1` [Compound 126, N-Methyl-N-{2-[methyl-(6-{4-[3-(1-methyl-1H-pyrrol-2-yl)-5,6-dihydro-4H-pyridazine-1-carbonyl]-phenoxy}-pyrazin-2-yl)-amino]-ethyl} acetamide], the figure is 1 to 10 µM; as for `CC(=O)N(C)CCN(C)c1cncc(Oc2ccc(Cn3nc(-c4cc(F)cc(F)c4)ccc3=O)cc2)n1` [Compound 127, N-{2-[(6-{4-[3-(3,5-Difluoro-phenyl)-6-oxo-6H-pyridazin-1-ylmethyl]-phenoxy}-pyrazin-2-yl)-methyl-amino]-ethyl}-N-methyl-acetamide], 1 to 10 µM; as for `CC(=O)N(C)CCN(C)c1cncc(Oc2ccc(-c3cc(C(F)(F)F)ccn3)cc2)n1` [Compound 128, N-Methyl-N-[2-(methyl-{6-[4-(4-trifluoro-methyl-pyridin-2-yl)-phenoxy]-pyrazin-2-yl}-amino)-ethyl]-acetamide], 1 to 10 µM.
The result for `CC(=O)N(C)CCN(C)c1cncc(Sc2ccc(F)cc2)n1` [Compound 129, N-(2-{[6-(4-Fluoro-phenyl-sulfanyl)-pyrazin-2-yl]-methyl-amino}-ethyl)-N-methyl-acetamide] reads 0.2 to 1 µM; that for `CC(=O)N(C)CCN(C)c1cncc(Sc2ccc(Br)cc2)n1` [Compound 130, N-(2-{[6-(4-Bromo-phenyl-sulfanyl)-pyrazin-2-yl]-methyl-amino}-ethyl)-N-methyl-acetamide], 1 to 10 µM.
The compound `CC(=O)N(C)CCN(C)c1cncc(Oc2ccc(OC(F)(F)F)cc2)n1` [Compound 131, N-Methyl-N-(2-{methyl-[6-(4-trifluoro-methoxy)-pyrazin-2-yl]-amino}-ethyl)-acetamide] returned an IC50 below 0.2 µM.
The result for `CC(=O)N(C)CCN(C)c1cncc(Oc2ccc(N3CCN(c4ccncc4)CC3)cc2)n1` [Compound 132, N-Methyl-N-[2-(methyl-{6-[4-(4-pyridin-4-yl-piperazin-1-yl)-phenoxy]-pyrazin-2-yl}-amino)-ethyl]-acetamide] reads below 0.2 µM; that for `CC(=O)N(C)CCN(C)c1cncc(Oc2ccc(-c3ccccn3)cc2)n1` [Compound 133, N-Methyl-N-(2-{methyl-[6-(4-pyridin-2-yl-phenoxy)-pyrazin-2-yl]-amino}-ethyl)-acetamide], below 0.2 µM.
As for `CNCCN(C)c1cncc(Oc2ccc(-c3cccc(N4CCN(C)CC4)n3)cc2)n1` [Compound 134, N,N′-Dimethyl-N-(6-{4-[6-(4-methyl-piperazin-1-yl)-pyridin-2-yl]-phenoxy}-pyrazin-2-yl)-ethane-1,2-diamine], the figure is 1 to 10 µM.
As for `CCC1Sc2ccccc2NC1c1ccc(Oc2cncc(N(C)CCN(C)C(C)=O)n2)cc1` (stereo not drawn) [Compound 135, N-[2-({6-[4-(2-Ethyl-3,4-dihydro-2H-benzo[1,4]thiazin-3-yl)-phenoxy]-pyrazin-2-yl}-methyl-amino)-ethyl]-N-methyl-acetamide], the figure is 1 to 10 µM; as for `CC(=O)N(C)CCSc1cncc(Oc2ccc(F)cc2)n1` [Compound 136, N-{2-[6-(4-Fluoro-phenoxy)-pyrazin-2-ylsulfanyl]-ethyl}-N-methyl-acetamide], below 0.2 µM; as for `CCOC(=O)Cc1ccc(Oc2cncc(N(C)CCN(C)C(C)=O)n2)cc1` [Compound 137, [4-(6-{[2-(Acetyl-methyl-amino)-ethyl]-methyl-amino}-pyrazin-2-yloxy)-phenyl]-acetic acid ethyl ester], below 0.2 µM.
`CCOC(=O)C(C)c1ccc(Oc2cncc(N(C)CCN(C)C(C)=O)n2)cc1` (stereo not drawn) [Compound 138, 2-[4-(6-{[2-(Acetyl-methyl-amino)-ethyl]-methyl-amino}-pyrazin-2-yloxy)-phenyl]-propionic acid ethyl ester] displayed a half-maximal inhibitory concentration (IC50) of 0.2 to 1 µM.
As for `CCC(C)(C)c1ccc(Oc2cncc(N(C)CCN(C)C(C)=O)n2)cc1` [Compound 139, N-[2-({6-[4-(1,1-Dimethyl-propyl)-phenoxy]-pyrazin-2-yl}-methyl-amino)-ethyl]-N-methyl-acetamide], the figure is 0.2 to 1 µM; as for `COc1ccc(Oc2cncc(N(C)CCN(C)C(C)=O)n2)cc1OC` [Compound 140, N-(2-{[6-(3,4-Dimethoxy-phenoxy)-pyrazin-2-yl]-methyl-amino}-ethyl)-N-methyl-acetamide], 1 to 10 µM.
The result for `COC(=O)CCc1ccc(Oc2cncc(N(C)CCN(C)C(C)=O)n2)cc1` [Compound 141, 3-[4-(6-{[2-(Acetyl-methyl-amino)-ethyl]-methyl-amino}-pyrazin-2-yloxy)-phenyl]-propionic acid methyl ester] reads 1 to 10 µM; that for `CC(=O)N(C)CCN(C)c1cncc(Oc2ccc(CC#N)cc2)n1` [Compound 142, N-(2-{[6-(4-Cyano-methyl-phenoxy)-pyrazin-2-yl]-methyl-amino}-ethyl)-N-methyl-acetamide], below 0.2 µM; that for `CC(=O)N(C)CCN(C)c1cncc(Oc2ccc(C(N)=O)cc2)n1` [Compound 143, 4-(6-{[2-(Acetyl-methyl-amino)-ethyl]-methyl-amino}-pyrazin-2-yloxy)-benzamide], 0.2 to 1 µM.
As for `CC(=O)N(C)CCN(C)c1cncc(Oc2ccc(-c3ccncc3C#N)cc2)n1` [Compound 144, N-[2-({6-[4-(3-Cyano-pyridin-4-yl)-phenoxy]-pyrazin-2-yl}-methyl-amino)-ethyl]-N-methyl-acetamide], the figure is below 0.2 µM.
Take `CC(=O)N(C)CCN(C)c1cncc(Oc2ccc(/C=C/c3ccccn3)cc2)n1` [Compound 145, N-Methyl-N-[2-(methyl-{6-[4-((E)-2-pyridin-2-yl-vinyl)-phenoxy]-pyrazin-2-yl}-amino)-ethyl]-acetamide]: the IC50 was below 0.2 µM.
The result for `CC(=O)N(C)CCN(C)c1cncc(Oc2ccc(-c3noc(C)n3)cc2)n1` [Compound 146, N-Methyl-N-[2-(methyl-{6-[4-(5-methyl-[1,2,4]oxadiazol-3-yl)-phenoxy]-pyrazin-2-yl}-amino)-ethyl]-acetamide] reads 0.2 to 1 µM.
As for `CC(=O)N(C)CCN(C)c1cncc(Oc2ccc(C(=O)c3ccccc3)cc2)n1` [Compound 147], the figure is 0.2 to 1 µM; as for `CCc1ccc(C2=NN(C(=O)c3ccc(Oc4cncc(N(C)CCN(C)C(C)=O)n4)cc3)CCC2)cc1` [Compound 148, N-{2-[(6-{4-[3-(4-Ethyl-phenyl)-5,6-dihydro-4H-pyridazine-1-carbonyl]-phenoxy}-pyrazin-2-yl)-methyl-amino]-ethyl}-N-methyl-acetamide], 1 to 10 µM; as for `CC(=O)N(C)CCN(C)c1cncc(Oc2ccc(N3CCNCC3)cc2)n1` [Compound 149, N-Methyl-N-(2-{methyl-[6-(4-piperazin-1-yl-phenoxy)-pyrazin-2-yl]-amino}-ethyl)-acetamide], 1 to 10 µM.
The result for `CC(=O)N(C)CCN(C)c1cncc(Oc2ccc(-c3ccccc3S(C)(=O)=O)cc2)n1` [Compound 150, N-(2-{[6-(2′-Methane-sulfonyl-biphenyl-4-yloxy)-pyrazin-2-yl]-methyl-amino}-ethyl)-N-methyl-acetamide] reads below 0.2 µM; that for `CC(=O)N(C)CCN(C)c1cncc(Oc2ccc(-c3ccc(=O)[nH]n3)cc2)n1` [Compound 151, N-Methyl-N-[2-(methyl-{6-[4-(6-oxo-1,6-dihydro-pyridazin-3-yl)-phenoxy]-pyrazin-2-yl}-amino)-ethyl]-acetamide], 0.2 to 1 µM.
Consider `CC(=O)N(C)CCN(C)c1cncc(Oc2ccc(-c3ccc(F)cn3)cc2)n1` [Compound 152, N-[2-({6-[4-(5-Fluoro-pyridin-2-yl)-phenoxy]-pyrazin-2-yl}-methyl-amino)-ethyl]-N-methyl-acetamide], for which the IC50 was below 0.2 µM.
For the compound `CC(=O)N(C)CCSc1cncc(Oc2ccc(-c3ccc(C)cn3)cc2)n1` [Compound 153, N-Methyl-N-(2-{6-[4-(5-methyl-pyridin-2-yl)-phenoxy]-pyrazin-2-ylsulfanyl}-ethyl)-acetamide], the 50% inhibitory concentration (IC50) is below 0.2 µM.
`CC(=O)N(C)CCN(C)c1cncc(Oc2ccc3[nH]c(=O)oc3c2)n1` [Compound 154, N-Methyl-N-(2-{methyl-[6-(2-oxo-2,3-dihydro-benzooxazol-6-yloxy)-pyrazin-2-yl]-amino}-ethyl)-acetamide] came in with a half-maximal inhibitory concentration (IC50) of 1 to 10 µM.
As for `CC(=O)Oc1cnc(-c2ccc(Oc3cncc(N(C)CCN(C)C(C)=O)n3)cc2)nc1` [Compound 155, Acetic acid 2-[4-(6-{[2-(acetyl-methyl-amino)-ethyl]-methyl-amino}-pyrazin-2-yloxy)-phenyl]-pyrimidin-5-yl ester], the figure is 1 to 10 µM.
Regarding `CN(CCC(N)=O)c1cncc(Oc2ccc(F)cc2)n1` [Compound 156, 3-{[6-(4-Fluoro-phenoxy)-pyrazin-2-yl]-methyl-amino}-propion-amide], the IC50 lay within 1 to 10 µM.
The result for `CC(=O)N(C)CCN(C)c1cncc(Oc2ccc(C(=O)c3ccco3)cc2)n1` [Compound 157, N-[2-({6-[4-(Furan-2-carbonyl)-phenoxy]-pyrazin-2-yl}-methyl-amino)-ethyl]-N-methyl-acetamide] reads below 0.2 µM.

The term IC50 denotes the concentration needed to halve the response being measured. A high value points to weaker potency.
